We go through 14 compounds from article PMC8305768, “Design, Synthesis and Antiparasitic Evaluation of Click Phospholipids” (Molecules, 2021).

Data set [1] can be described thus: Cytotoxicity against THP-1 macrophages (MTT). Type of data set: cell-based. Particulars: human, PMA-differentiated THP-1 macrophages, read-out: Toxicity CC50 ± SD Or CC50 Interval Estimation. Here is the method: The effect of compounds selected compounds on THP-1-derived macrophages was assessed by the colorimetric MTT assay (3-(4,5-dimethylthiazol-2-yl)-2,5-diphenyl tetrazolium bromide). Briefly, 1 × 10^5 THP-1 cells/mL were differentiated into macrophages by addition of 20 ng/mL of phorbol-myristate 13-acetate (PMA, Sigma, Saint Louis, MI, USA) for 18 h, followed by replacement with fresh medium for 24 h. Cells were incubated with 100 µL of compounds ranging from 100 to 1 µM after dilution in the RPMI complete medium containing a maximum amount of 1% DMSO. After incubation for 72 h, the medium was removed and 100 µL of 0.5 mg/mL MTT solution diluted in RPMI was added. Plates were incubated for an additional 4 h to allow viable cells to convert MTT into a purple formazan product. Solubilization of formazan crystals was achieved by the addition of 2-propanol and absorbance was read at 570 nm using a Synergy 2 Multi-Mode Reader (Biotek, Winooski, VT, USA). Cytotoxicity was evaluated by the determination of the CC50 value (drug concentration that reduced the percentage of viable cells in 50%) and calculated by non-linear regression analysis using GraphPad Prism version 8.1.1 for Windows (GraphPad Software, San Diego, CA, USA).

Data set [2] relates to L. donovani strain BPK190 amastigotes. The data set is described as follows: Activity against L. donovani intramacrophage amastigotes (bone marrow-derived macrophages, qPCR). Type of data set: cell-based, Leishmania donovani. The conditions noted are these: infected bone marrow-derived macrophages, 48 h; for inhibition of growth at 5 µM: Leishmania donovani, Macrophage, read-out: Parassite Load Reduction (%). As for the experimental part:
L. donovani strain BPK 190 [55] was cultivated at 25 °C in modified Medium199 (Sigma-Aldrich, with 20% heat-inactivated FCS, 40 mM HEPES pH 7.4, 0.2% NaHCO3, 100 μM adenin, 1.2 μg/mL 6-biopterin and 10 μg/mL haem, with 1 × Pen/Strep/l-glutamine (Sigma, Saint Louis, MI, USA), pH 7.0).
Activity against L. donovani strain BPK190 was tested in vitro using bone marrow-derived macrophages as host cells. Infection was established for 24 h prior to the addition of compounds from 10 mM stocks in DMSO. Parasite load was determined 48 h later by quantifying Leishmania actin DNA relative to mouse actin DNA using real time qPCR as described.
On the technique in general: In qPCR the cycle at which signal appears reflects the starting amount.

The target in another data set is T1, hERG (Homo sapiens, UniProt Q12809).
T1 construct: purchased Thermo Fischer Scientific
T1 sequence (Q12809 whole entry): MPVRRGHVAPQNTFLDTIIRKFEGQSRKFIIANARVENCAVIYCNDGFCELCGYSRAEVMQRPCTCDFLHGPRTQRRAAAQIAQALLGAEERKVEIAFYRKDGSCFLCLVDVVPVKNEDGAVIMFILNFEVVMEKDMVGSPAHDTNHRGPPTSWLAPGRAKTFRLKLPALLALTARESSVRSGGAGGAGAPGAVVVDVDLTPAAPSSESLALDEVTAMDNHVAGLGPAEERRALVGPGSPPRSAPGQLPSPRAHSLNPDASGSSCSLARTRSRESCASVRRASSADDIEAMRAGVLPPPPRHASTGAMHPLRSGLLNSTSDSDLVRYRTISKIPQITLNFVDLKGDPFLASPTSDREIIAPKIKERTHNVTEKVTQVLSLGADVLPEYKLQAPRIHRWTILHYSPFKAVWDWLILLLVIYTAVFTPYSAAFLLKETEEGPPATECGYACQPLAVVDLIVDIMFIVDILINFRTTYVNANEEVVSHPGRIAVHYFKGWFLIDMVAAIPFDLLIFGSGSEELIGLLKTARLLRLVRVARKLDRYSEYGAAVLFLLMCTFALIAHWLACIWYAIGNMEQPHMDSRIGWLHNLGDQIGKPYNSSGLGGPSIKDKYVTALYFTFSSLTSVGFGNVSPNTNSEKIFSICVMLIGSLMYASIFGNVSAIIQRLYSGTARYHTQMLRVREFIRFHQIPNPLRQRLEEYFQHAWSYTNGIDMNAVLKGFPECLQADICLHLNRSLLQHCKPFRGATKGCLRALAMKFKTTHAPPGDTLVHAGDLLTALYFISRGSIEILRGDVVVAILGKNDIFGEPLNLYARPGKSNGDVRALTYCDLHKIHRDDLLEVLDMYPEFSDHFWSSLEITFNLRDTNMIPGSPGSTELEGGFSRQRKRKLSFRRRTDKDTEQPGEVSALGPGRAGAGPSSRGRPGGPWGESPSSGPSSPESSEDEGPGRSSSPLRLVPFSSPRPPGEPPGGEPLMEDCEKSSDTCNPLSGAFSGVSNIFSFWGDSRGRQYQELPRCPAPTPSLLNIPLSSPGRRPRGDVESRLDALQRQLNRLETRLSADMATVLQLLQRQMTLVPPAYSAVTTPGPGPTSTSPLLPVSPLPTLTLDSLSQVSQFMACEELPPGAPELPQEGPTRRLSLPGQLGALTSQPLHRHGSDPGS
The data set is described as follows: hERG cardiotoxicity assay (Predictor hERG fluorescence polarization). Type of data set: binding. The conditions noted are these: compounds 10 μM; miltefosine 10 μM or 1 μM. Here is the method:
hERG cardiotoxicity assay: The Predictor® hERG fluorescence polarization assay (Thermo Fischer Scientific, Waltham, MA, USA) was used to test compounds for potential cardiotoxicity. To each well of the assay plate, 100 nL of the test/control compound was added followed by addition of 5 μL homogenized membrane solution (undiluted) and 5 μL of tracer (1 nM final concentration in the assay). The plates were incubated for 2 h at 25 °C in a humidity controlled incubator, and the fluorescence polarization was measured using an EnVision Multilabel 2103 Reader (PerkinElmer, Waltham, MA. USA). The NCs (0% inhibition) and positive controls with E-4031, a blocker of hERG-type potassium channels (yielding 100% inhibition), were used to normalize the raw data.
Data analysis: The screening data were obtained in triplicate and analysed using ActivityBase (IDBS, Guildford, UK), and outlier elimination in the control wells was performed using the 3-sigma method. Unless stated, dose–response experiments were performed in the 11-point format with the IC50 value, Hill slope, minimum signal and maximum signal for each dose–response curve obtained using a four-parameter logistic fit in the XE module of ActivityBase (IDBS).

The test system of another data set is WI-38 cells. Description: Cytotoxicity assay WI-38 (CellTiter-Glo). Type of data set: cell-based. Particulars: compounds 10 μM; miltefosine 10 μM or 1 μM. From the text: Early ADMET profiling: The early ADMET profiling of the new derivatives involved a group of assays widely used in drug development as part of the preclinical in vitro toxicity studies. In particular our panel included hERG inhibition, five cytochromes P450 (CYP1A2, CYP2C9, CYP2C19, CYP2D6 and CYP3A4), two cell-lines (A549, epithelial human lung adenocarcinoma, WI38 and foetal lung fibroblasts), Aurora B kinase and mitochondrial toxicity, in addition to the parasite relevant toxicity against THP1 macrophages. The compounds were tested at 10 μΜ, whilst the miltefosine control was tested at 10 μΜ or 1 μM. The toxicity of the new click phospholipids is depicted in Figure 3 in a traffic light format (from red through yellow to green for decreasing ADMET liabilities).
Cytotoxicity assay: A549 cells and WI-38 cells were grown on surface-modified T175 cell culture flasks in Dulbecco’s modified Eagle medium with 10% foetal calf serum (FCS), streptomycin (100 μg/mL) and 100 U/mL penicillin G. At about 80% confluency, cells were washed, trypsinized, resuspended and counted in RPMI-1640 medium before seeding (in triplicate) into white 384-well microtiter plates (20 μL) at 500 cells/well and incubated at 37 °C in the presence of 5% CO2 for 24 h. A total of 20 μL/well of CellTiter-Glo (CTG) reagent (Promega Corp., Madison, WI, USA) was added to each well, and plates were read using an EnVision Multilabel 2103 Reader after a 10-min incubation in the dark. Dose–response assays for compounds made use of 11-point curves. Each test compound (200 nL of 10 mM top concentration in 100% v/v DMSO) was added to cells seeded in polystyrene 384-well cell culture microtiter plates using the Echo 550 Liquid Handler and read after 24 h of incubation at 37 °C in the presence of 5% CO2 using CTG as described above. The compounds/positive control (paclitaxel with final concentration of 10 μM and 1% v/v DMSO) and no compound (final 1% v/v DMSO) were added into the 384-well plates (200 nL/well; 1% v/v DMSO) using the Echo 550 Liquid Handler. The raw luminescence signal of each sample was converted into the percentage of cell growth.
For orientation: In ATP-based viability assays light output follows the ATP content of the culture.

SMILES strings stand for the structures. Where a name gives a salt, the structure may show the parent alone.

As usually defined, the CC50 is the concentration giving 50% cytotoxicity. As for `CCCCCc1cn(CCCCCCCCCCCOP(=O)([O-])OCC[N+](C)(C)C)nn1` [Compound 25, 11-(4-pentyl-1H-1,2,3-triazol-1-yl)undecyl (2-(trimethylammonio)ethyl) phosphate inner salt], in data set [1], the CC50 at 72 h is more than 100 µM. In data set [2], the inhibition of growth at 5 µM stood at 0%. Moreover, at hERG, the “% inhibition ± SD at 10 μΜ hERG” value was “–7.70%”. The “% cell growth ± SD at 10 μΜ W1-38” value in the data set on WI-38 cells is on record as 93.46%.

With `C[N+](C)(C)CCOP(=O)([O-])OCCCCCCCCCCCn1cc(CC2CCCC2)nn1` [Compound 28, 11-(4-(cyclopentylmethyl)-1H-1,2,3-triazol-1-yl)undecyl (2-(trimethylammo nio)ethyl) phosphate inner salt], in data set [1], the CC50 at 72 h is more than 100 µM. Moreover, the inhibition of growth at 5 µM in data set [2] came out at 0%. In addition, on hERG, the “% inhibition ± SD at 10 μΜ hERG” value is “–3.64%”. Moreover, the “% cell growth ± SD at 10 μΜ W1-38” value in the data set with WI-38 cells is listed as 114.04%.

In the case of `C[N+](C)(C)CCOP(=O)([O-])OCCCCCCCCCCCn1cc(CC2CCCCC2)nn1` [Compound 29, 11-(4-(cyclohexylmethyl)-1H-1,2,3-triazol-1-yl)undecyl (2-(trimethylammonio)ethyl) phosphate inner salt], the CC50 at 72 h in data set [1] was more than 100 µM. Further, the inhibition of growth at 5 µM in data set [2] was 41.7%. Also, on hERG, the “% inhibition ± SD at 10 μΜ hERG” value was “–4.90%”. In addition, in the data set on WI-38 cells, the “% cell growth ± SD at 10 μΜ W1-38” value worked out at 92.93%.

With `C[N+](C)(C)CCOP(=O)([O-])OCCCCCn1cc(CCCCCCCCNC(=O)OCc2ccccc2)nn1` [Compound 31, 5-(4-(8-(((benzyloxy)carbonyl)amino)octyl)-1H-1,2,3-triazol-1-yl)pentyl (2-(trimethylammonio)ethyl) phosphate inner salt], in data set [1], the CC50 at 72 h was more than 100 µM. Also, in data set [2], the inhibition of growth at 5 µM came to 59.2%. Further, the “% inhibition ± SD at 10 μΜ hERG” value at hERG is “–6.43%”. Further, the “% cell growth ± SD at 10 μΜ W1-38” value in the data set on WI-38 cells is recorded as 123.63%.

As for `C[N+](C)(C)CCOP(=O)([O-])OCCCCCCCCCCCn1cc(CCCCCCCCNC(=O)OCc2ccccc2)nn1` [Compound 32, 11-(4-(8-(((benzyloxy)carbonyl)amino)octyl)-1H-1,2,3-triazol-1-yl)undecyl (2-(trimethylammonio)ethyl) phosphate inner salt], in data set [1], the half-maximal cytotoxic concentration (CC50) at 72 h is more than 100 µM. Also, in data set [2] (5 μM), the “Parassite Load Reduction (%)” value is “abolished the activity”. Moreover, the inhibition of growth at 5 µM in data set [2] came to 0.7%.

As to `C[N+](C)(C)CCCOP(=O)([O-])OCCCCCCCCCCCn1cc(CC2CCCCC2)nn1` [Compound 33, 11-(4-(cyclohexylmethyl)-1H-1,2,3-triazol-1-yl)undecyl (3-(trimethylammonio)propyl) phosphate inner salt], the CC50 at 72 h in data set [1] was more than 10 µM. Also, the inhibition of growth at 5 µM in data set [2] worked out at 47.8%. For the same compound, the “% inhibition ± SD at 10 μΜ hERG” value on hERG is reported as 16.60 ± 2.64%. In the data set with WI-38 cells, the “% cell growth ± SD at 10 μΜ W1-38” value came out at 136.32%.

`C[N+](C)(C)CCOP(=O)([O-])OCCCCCCCCCCCn1cc(CCCCCCCCC(=O)O)nn1` [Compound 34, 11-(4-(8-carboxyoctyl)-1H-1,2,3-triazol-1-yl)undecyl (2-(trimethylammonio)ethyl) phosphate inner salt]: in data set [1], the CC50 at 72 h is 50 to 100 µM. Besides, the inhibition of growth at 5 µM in data set [2] was found to be 43.8%.

With `C[N+](C)(C)CCOP(=O)([O-])OCCCCCn1cc(CCCCCCCCN)nn1` [Compound 35, 5-(4-(8-aminooctyl)-1H-1,2,3-triazol-1-yl)pentyl (2-(trimethylammonio)ethyl) phosphate inner salt], in data set [1], the CC50 at 72 h is more than 100 µM. The inhibition of growth at 5 µM in data set [2] turned out to be 69.1%. Further, at hERG, the “% inhibition ± SD at 10 μΜ hERG” value was 0.10%. Also, the “% cell growth ± SD at 10 μΜ W1-38” value in the data set on WI-38 cells stood at 119.10%.

In the case of `CCCCCCCCCCc1cc(CCCCCCCCCCOP(=O)([O-])OCC[N+](C)(C)C)no1` [Compound 41, 10-(5-decylisoxazol-3-yl)decyl (2-(trimethylammonio)ethyl) phosphate inner salt], the CC50 at 72 h in data set [1] is 12.5 to 25 µM.

As to `CCCCCCCCc1noc(CCCCCOP(=O)([O-])OCC[N+](C)(C)C)n1` [Compound 53, 5-(3-octyl-1,2,4-oxadiazol-5-yl)pentyl (2-(trimethylammonio)ethyl) phosphate inner salt], the CC50 at 72 h in data set [1] was 12.5 to 25 µM. The “% inhibition ± SD at 10 μΜ hERG” value at hERG is given as 8.95%. Moreover, in the data set on WI-38 cells, the “% cell growth ± SD at 10 μΜ W1-38” value is 83.83%.

On to `CCCCCCCCc1noc(CCCCCCCCCCOP(=O)([O-])OCC[N+](C)(C)C)n1` [Compound 54, 10-(3-octyl-1,2,4-oxadiazol-5-yl)decyl (2-(trimethylammonio)ethyl) phosphate inner salt], for which the CC50 at 72 h in data set [1] is more than 10 µM. Further, the “% inhibition ± SD at 10 μΜ hERG” value on hERG is on record as 17.93%.

As for `CCCCCCCc1nnc(CCCCCCCCCCOP(=O)([O-])OCC[N+](C)(C)C)o1` [Compound 65, 10-(5-heptyl-1,3,4-oxadiazol-2-yl)decyl (2-(trimethylammonio)ethyl) phosphate inner salt], the CC50 at 72 h in data set [1] was 12.5 to 25 µM. Moreover, the “% inhibition ± SD at 10 μΜ hERG” value at hERG is listed as 8.64%. In the data set on WI-38 cells, the “% cell growth ± SD at 10 μΜ W1-38” value is given as 77.74%.

Turning to `CCCCCCCCCCCc1nnc(CCCCCCCCCCOP(=O)([O-])OCC[N+](C)(C)C)o1` [Compound 66, 2-(trimethylammonio)ethyl (10-(5-undecyl-1,3,4-oxadiazol-2-yl)decyl) phosphate inner salt], the CC50 at 72 h in data set [1] was 25 to 50 µM. In addition, at hERG, the “% inhibition ± SD at 10 μΜ hERG” value was 22.98%.

Take `CCCCCCCCCCCCCCCCOP(=O)([O-])OCC[N+](C)(C)C` [Miltefosine, hexadecylphosphocholine, reference compound]: the CC50 at 72 h in data set [1] was 15.9 ± 1.2 µM. In data set [2], the inhibition of growth at 5 µM is 44.3%. Besides, the “% inhibition ± SD at 10 μΜ hERG” value on hERG was “–16.92%”. The “% cell growth ± SD at 10 μΜ W1-38” value in the data set on WI-38 cells turned out to be 113.50%.
